Laboratory results: the supplement of paper PMC11061612

Assays:
Experiment in all cases: combination Emax (second highest fraction inhibited in the dose matrix, 72 h); higher = more inhibition; extreme values may be limits of the assay
AM-38 (Glioblastoma) = system: AM-38 (Glioblastoma)
Summary of the method: (§1)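 Bliss excess equals the observed combination effect minus the expected value EA + EB − EA·EB, where EA and EB are the effects of each agent alone. Combination Emax is the second-highest inhibition within the matrix. Inhibition was scaled from CellTiter-Glo 2.0 luminescence, with 0 set by vehicle wells and 1 by blank wells, after 72 hours of two-drug dosing of cells plated in 1536-well plates.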

[1] = system: CL-11 (Colorectal Carcinoma)
Summary of the method: as §1

[2] = system: HT-1080 (Other Solid Carcinomas)
Summary of the method: as §1

IST-MEL1 (Melanoma) = system: IST-MEL1 (Melanoma)
Summary of the method: as §1

KALS-1 (Glioblastoma) = system: KALS-1 (Glioblastoma)
Summary of the method: as §1

[3] = system: LS-1034 (Colorectal Carcinoma)
Summary of the method: as §1

[4] = system: MDA-MB-415 (Breast Carcinoma)
Summary of the method: as §1

[5] = system: MM1S (Plasma Cell Myeloma)
Summary of the method: as §1

[6] = system: MOLP-8 (Plasma Cell Myeloma)
Summary of the method: as §1

[7] = system: MOLT-13 (T-Lymphoblastic Leukemia)
Summary of the method: as §1

[8] = system: NCI-H1341 (Small Cell Lung Carcinoma)
Summary of the method: as §1

[9] = system: NCI-H1876 (Small Cell Lung Carcinoma)
Summary of the method: as §1

[10] = system: NCI-H3118 (Head and Neck Carcinoma)
Summary of the method: as §1

[11] = system: NCI-H596 (Other Solid Carcinomas)
Summary of the method: as §1

[12] = system: RCC-JW (Kidney Carcinoma)
Summary of the method: as §1

[13] = system: SKG-IIIa (Cervical Carcinoma)
Summary of the method: as §1

[14] = system: SNU-407 (Colorectal Carcinoma)
Summary of the method: as §1

[15] = system: SNU-C2B (Colorectal Carcinoma)
Summary of the method: as §1

T47D (Breast Carcinoma) = system: T47D (Breast Carcinoma)
Summary of the method: as §1

UACC-257 (Melanoma) = system: UACC-257 (Melanoma)
Summary of the method: as §1

SMILES	combination Emax (AM-38 (Glioblastoma))	combination Emax [1]	combination Emax [2]	combination Emax (IST-MEL1 (Melanoma))	combination Emax (KALS-1 (Glioblastoma))	combination Emax [3]	combination Emax [4]	combination Emax [5]	combination Emax [6]	combination Emax [7]	combination Emax [8]	combination Emax [9]	combination Emax [10]	combination Emax [11]	combination Emax [12]	combination Emax [13]	combination Emax [14]	combination Emax [15]	combination Emax (T47D (Breast Carcinoma))	combination Emax (UACC-257 (Melanoma))
COc1cc2c(cc1OCCCCCOc1cc3c(cc1OC)C(=O)N1C=C(C)C[C@H]1C=N3)N=C[C@@H]1CC(C)=CN1C2=O [SG3199] + O=C(c1cc(Cc2n[nH]c(=O)c3ccccc23)ccc1F)N1CCN(C(=O)C2CC2)CC1 [Olaparib] (first compound max 0.001 µM, 7x7, partner max 10 µM)	0.306	0.111	0.12	0.181	0.163	0.0272	0.0958	0.293	0.233	0.226	0.193	0.7	0.118	0.202	0.0774	0.144	0.182	0.249	0.164	0.0273
CCc1c2c(nc3ccc(O)cc13)-c1cc3c(c(=O)n1C2)COC(=O)[C@]3(O)CC [SN-38] + CN(C)CCCOc1ccc(-c2ccc3ncc4c(c3c2)n(C2CCOCC2)c(=O)n4C)cn1 [AZD0156] (first compound max 0.3 µM, 7x7, partner max 1 µM)	0.917	0.764	0.374	0.864	0.596	0.814	0.294	0.966	0.78	1	0.955	1	0.402	0.348	0.656	0.42	0.416	0.397	0.643	0.281
C[C@@H](c1ccc2nccn2c1)n1nnc2ncc(-c3cnn(C)c3)nc21 [Savolitinib] + CC1(C)CCC(CN2CCN(c3ccc(C(=O)NS(=O)(=O)c4ccc(NCC5CCOCC5)c([N+](=O)[O-])c4)c(Oc4cnc5[nH]ccc5c4)c3)CC2)=C(c2ccc(Cl)cc2)C1 [Venetoclax] (first compound max 1 µM, 7x7, partner max 1 µM)	0.0558	0.09	0.0906	0.124	0.113	0.0816	0.261	0.116	0.0876	0.467	0.392	0.0954	0.115	0.229	0.124	0.12	0.231	0.0589	0.153	0.104
C[C@@H](c1ccc2nccn2c1)n1nnc2ncc(-c3cnn(C)c3)nc21 [Savolitinib] + Cc1c2c(nn1C)CSCc1cc(n(C)n1)CSc1cc(c3ccccc3c1)OCCCc1c(C(=O)O)n(C)c3c-2c(Cl)ccc13 [AZD5991] (first compound max 1 µM, 7x7, partner max 1 µM)	0.244	0.132	0.117	0.104	0.186	0.128	0.344	0.225	1	0.99	0.488	0.32	0.225	0.197	0.106	0.176	0.666	0.187	0.23	0.151
Cn1cnc2c(F)c(Nc3ccc(Br)cc3Cl)c(C(=O)NOCCO)cc21 [Selumetinib] + C=CCn1c(=O)c2cnc(Nc3ccc(N4CCN(C)CC4)cc3)nc2n1-c1cccc(C(C)(C)O)n1 [AZD1775] (first compound max 10 µM, partner max 1 µM)	0.563	0.855	0.439	0.527	0.755	0.747	0.23	0.746	0.791	1	0.697	0.982	0.902	0.223	0.16	0.303	0.722	0.463	0.34	0.607
Cn1cnc2c(F)c(Nc3ccc(Br)cc3Cl)c(C(=O)NOCCO)cc21 [Selumetinib] + CC(C)n1c(=O)n(C)c2cnc3cc(F)c(-c4ccc(OCCCN5CCCCC5)nc4)cc3c21 [AZD1390] (first compound max 10 µM, 7x7, partner max 0.3 µM)	0.437	0.691	0.261	0.289	0.405	0.689	0.222	0.264	0.325	0.456	0.163	0.272	0.577	0.21	0.0923	0.2	0.507	0.29	0.109	0.568
Cn1cnc2c(F)c(Nc3ccc(Br)cc3Cl)c(C(=O)NOCCO)cc21 [Selumetinib] + CCN(CCO)CCCOc1ccc2c(Nc3cc(CC(=O)Nc4cccc(F)c4)[nH]n3)ncnc2c1 [AZD2811] (first compound max 10 µM, 7x7, partner max 1 µM)	0.542	0.709	0.387	0.361	0.417	0.671	0.248	0.283	0.417	1	0.271	0.792	0.537	0.23	0.132	0.321	0.726	0.335	0.29	0.68
Cn1cnc2c(F)c(Nc3ccc(Br)cc3Cl)c(C(=O)NOCCO)cc21 [Selumetinib] + C[C@@H]1COCCN1C2=NC(=NC(=C2)C3(CC3)[S@](=N)(=O)C)C4=C5C=CNC5=NC=C4 [AZD6738] (first compound max 10 µM, 7x7, partner max 10 µM)	0.706	0.873	0.461	0.74	0.681	0.811	0.458	0.475	0.832	1	0.809	0.895	0.653	0.36	0.386	0.214	0.758	0.468	0.158	0.595
CC(=O)Nc1cccc(-n2c(=O)n(C3CC3)c(=O)c3c(Nc4ccc(I)cc4F)n(C)c(=O)c(C)c32)c1 [Trametinib] + Cc1nc(-c2cn3c(n2)-c2ccc(-c4cnn(C(C)(C)C(N)=O)c4)cc2OCC3)n(C(C)C)n1 [Taselisib] (first compound max 1 µM, 7x7, partner max 10 µM)	0.909	0.989	0.628	0.932	0.951	0.787	0.848	1	1	0.698	0.927	0.796	0.966	0.81	0.556	0.527	0.905	0.676	0.643	0.806
CC1(C)CCC(CN2CCN(c3ccc(C(=O)NS(=O)(=O)c4ccc(NCC5CCOCC5)c([N+](=O)[O-])c4)c(Oc4cnc5[nH]ccc5c4)c3)CC2)=C(c2ccc(Cl)cc2)C1 [Venetoclax] + C1CN(CCC1(C(=O)N[C@@H](CCO)C2=CC=C(C=C2)Cl)N)C3=NC=NC4=C3C=CN4 [Capivasertib] (first compound max 1 µM, 7x7, partner max 3 µM)	0.0317	0.162	0.127	0.36	0.714	0.207	0.663	0.978	0.385	0.566	0.551	0.259	0.169	0.334	0.157	0.224	0.388	0.25	0.373	0.123
CC1(C)CCC(CN2CCN(c3ccc(C(=O)NS(=O)(=O)c4ccc(NCC5CCOCC5)c([N+](=O)[O-])c4)c(Oc4cnc5[nH]ccc5c4)c3)CC2)=C(c2ccc(Cl)cc2)C1 [Venetoclax] + C=CCn1c(=O)c2cnc(Nc3ccc(N4CCN(C)CC4)cc3)nc2n1-c1cccc(C(C)(C)O)n1 [AZD1775] (first compound max 1 µM, partner max 1 µM)	0.289	0.502	0.349	0.799	0.93	0.56	0.206	0.908	0.75	1	0.808	0.994	0.836	0.259	0.286	0.271	0.558	0.609	0.219	0.185
CC1(C)CCC(CN2CCN(c3ccc(C(=O)NS(=O)(=O)c4ccc(NCC5CCOCC5)c([N+](=O)[O-])c4)c(Oc4cnc5[nH]ccc5c4)c3)CC2)=C(c2ccc(Cl)cc2)C1 [Venetoclax] + CCN(CCO)CCCOc1ccc2c(Nc3cc(CC(=O)Nc4cccc(F)c4)[nH]n3)ncnc2c1 [AZD2811] (first compound max 1 µM, 7x7, partner max 1 µM)	0.221	0.267	0.27	0.504	0.661	0.114	0.231	0.265	0.406	1	0.495	0.742	0.207	0.207	0.184	0.229	0.485	0.185	0.266	0.226
